In ChEMBL document CHEMBL3627608, “Crystal structures of human RIP2 kinase catalytic domain complexed with ATP-competitive inhibitors: Foundations for understanding inhibitor selectivity” (Bioorg Med Chem, 2015):

Experiments:
[1] = molecular target: Calcium/calmodulin-dependent protein kinase type II subunit gamma (Homo sapiens) (UniProt Q13555); test: Inhibition of CAMK2gamma (unknown origin) at 10 uM after 120 mins P33 radiolabeled kinase activity assay
[2] = molecular target: T1, Testis-specific serine/threonine-protein kinase 3 (Homo sapiens) (UniProt Q96PN8); test: Inhibition of TSSK3 (unknown origin) at 10 uM after 120 mins P33 radiolabeled kinase activity assay
T1 sequence (whole entry): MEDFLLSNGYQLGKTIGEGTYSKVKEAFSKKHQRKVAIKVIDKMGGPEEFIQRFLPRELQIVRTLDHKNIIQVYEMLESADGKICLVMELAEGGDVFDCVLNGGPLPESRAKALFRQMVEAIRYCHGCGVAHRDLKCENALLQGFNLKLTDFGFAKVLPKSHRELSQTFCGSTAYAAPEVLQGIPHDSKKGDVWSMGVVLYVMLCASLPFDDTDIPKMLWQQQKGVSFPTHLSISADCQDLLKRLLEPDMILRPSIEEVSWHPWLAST

[3] = molecular target: Fibroblast growth factor receptor 2 (Homo sapiens) (UniProt P21802); test: Inhibition of FGFR2 (unknown origin) at 10 uM after 120 mins P33 radiolabeled kinase activity assay
Sequence of Fibroblast growth factor receptor 2 (Homo sapiens) (P21802 22-821 limits assumed): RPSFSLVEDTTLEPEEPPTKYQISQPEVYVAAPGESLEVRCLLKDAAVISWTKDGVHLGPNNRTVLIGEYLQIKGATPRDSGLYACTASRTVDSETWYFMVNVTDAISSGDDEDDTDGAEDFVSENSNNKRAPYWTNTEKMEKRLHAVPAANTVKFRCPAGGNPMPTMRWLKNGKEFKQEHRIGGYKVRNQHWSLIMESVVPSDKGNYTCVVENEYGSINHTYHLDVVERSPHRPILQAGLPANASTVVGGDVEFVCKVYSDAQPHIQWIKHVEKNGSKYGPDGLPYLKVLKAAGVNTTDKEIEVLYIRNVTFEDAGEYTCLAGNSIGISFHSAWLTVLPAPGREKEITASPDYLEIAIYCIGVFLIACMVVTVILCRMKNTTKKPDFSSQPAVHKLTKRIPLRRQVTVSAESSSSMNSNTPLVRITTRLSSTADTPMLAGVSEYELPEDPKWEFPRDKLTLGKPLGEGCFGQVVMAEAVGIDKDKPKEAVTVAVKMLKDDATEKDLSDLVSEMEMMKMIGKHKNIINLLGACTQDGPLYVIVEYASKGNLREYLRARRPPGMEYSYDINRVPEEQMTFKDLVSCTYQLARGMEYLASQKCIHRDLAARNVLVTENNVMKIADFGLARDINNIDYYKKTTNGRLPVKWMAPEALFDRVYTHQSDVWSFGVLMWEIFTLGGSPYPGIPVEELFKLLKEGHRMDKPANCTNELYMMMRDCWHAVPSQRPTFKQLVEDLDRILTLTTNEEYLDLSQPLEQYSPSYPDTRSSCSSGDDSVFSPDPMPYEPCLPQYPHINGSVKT

[4] = molecular target: Cyclin-dependent kinase 18 (Homo sapiens) (UniProt Q07002); test: Inhibition of PCTK3 (unknown origin) at 10 uM after 120 mins P33 radiolabeled kinase activity assay
Sequence of Cyclin-dependent kinase 18 (Homo sapiens) (Q07002 whole entry): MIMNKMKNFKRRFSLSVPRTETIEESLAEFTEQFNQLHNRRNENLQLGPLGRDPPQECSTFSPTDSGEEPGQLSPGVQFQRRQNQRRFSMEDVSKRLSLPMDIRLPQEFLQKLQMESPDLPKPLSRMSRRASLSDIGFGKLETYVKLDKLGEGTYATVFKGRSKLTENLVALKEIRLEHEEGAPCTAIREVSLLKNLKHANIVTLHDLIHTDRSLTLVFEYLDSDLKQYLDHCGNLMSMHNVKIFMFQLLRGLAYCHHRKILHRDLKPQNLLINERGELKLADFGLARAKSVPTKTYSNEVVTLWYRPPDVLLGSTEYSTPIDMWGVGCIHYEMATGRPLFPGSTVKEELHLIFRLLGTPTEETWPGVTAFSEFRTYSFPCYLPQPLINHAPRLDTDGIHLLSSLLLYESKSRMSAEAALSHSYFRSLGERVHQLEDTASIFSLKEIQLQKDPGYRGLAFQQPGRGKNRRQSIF

[5] = molecular target: Insulin receptor-related protein (Homo sapiens) (UniProt P14616); test: Inhibition of IRR (unknown origin) at 10 uM after 120 mins P33 radiolabeled kinase activity assay
Sequence of Insulin receptor-related protein (Homo sapiens) (P14616 27-742 limits assumed): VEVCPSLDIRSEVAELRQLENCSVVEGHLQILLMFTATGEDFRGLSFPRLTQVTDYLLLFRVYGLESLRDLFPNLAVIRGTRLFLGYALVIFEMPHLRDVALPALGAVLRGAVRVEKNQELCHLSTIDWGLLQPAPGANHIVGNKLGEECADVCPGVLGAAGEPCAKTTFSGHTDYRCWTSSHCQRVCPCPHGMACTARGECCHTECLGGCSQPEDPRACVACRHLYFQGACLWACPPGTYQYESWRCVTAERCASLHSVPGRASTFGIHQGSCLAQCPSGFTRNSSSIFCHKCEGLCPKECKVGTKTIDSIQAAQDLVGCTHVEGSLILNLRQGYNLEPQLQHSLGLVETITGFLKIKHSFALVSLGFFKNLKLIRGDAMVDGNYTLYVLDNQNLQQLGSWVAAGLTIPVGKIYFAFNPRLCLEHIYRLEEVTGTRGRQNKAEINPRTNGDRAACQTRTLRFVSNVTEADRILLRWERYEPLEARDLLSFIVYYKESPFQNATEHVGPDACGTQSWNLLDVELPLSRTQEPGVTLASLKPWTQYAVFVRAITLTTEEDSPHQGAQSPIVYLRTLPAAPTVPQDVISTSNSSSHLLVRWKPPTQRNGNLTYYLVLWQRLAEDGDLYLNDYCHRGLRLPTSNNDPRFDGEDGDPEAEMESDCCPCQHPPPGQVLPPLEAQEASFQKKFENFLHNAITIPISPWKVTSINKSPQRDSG
Sequence of Insulin receptor-related protein (Homo sapiens) (P14616 747-1297 limits assumed): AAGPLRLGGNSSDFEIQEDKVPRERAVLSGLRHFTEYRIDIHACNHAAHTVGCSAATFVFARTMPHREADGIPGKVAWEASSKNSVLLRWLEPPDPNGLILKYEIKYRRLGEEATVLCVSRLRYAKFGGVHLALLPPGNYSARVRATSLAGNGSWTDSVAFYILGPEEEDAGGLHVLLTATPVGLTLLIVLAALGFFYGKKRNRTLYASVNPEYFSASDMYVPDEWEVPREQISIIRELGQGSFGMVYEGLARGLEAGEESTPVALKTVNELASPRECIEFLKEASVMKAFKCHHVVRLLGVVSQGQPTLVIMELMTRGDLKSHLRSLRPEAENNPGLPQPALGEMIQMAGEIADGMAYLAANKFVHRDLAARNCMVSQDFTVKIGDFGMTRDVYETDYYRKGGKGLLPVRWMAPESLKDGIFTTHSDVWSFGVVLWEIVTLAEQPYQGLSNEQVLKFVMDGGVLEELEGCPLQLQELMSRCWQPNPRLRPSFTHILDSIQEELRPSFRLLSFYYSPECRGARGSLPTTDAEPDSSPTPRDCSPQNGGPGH

[6] = molecular target: Dual specificity tyrosine-phosphorylation-regulated kinase 1A (Homo sapiens) (UniProt Q13627); test: Inhibition of DYRK1 (unknown origin) at 10 uM after 120 mins P33 radiolabeled kinase activity assay
[7] = molecular target: Platelet-derived growth factor receptor alpha (Homo sapiens) (UniProt P16234); test: Inhibition of PDGFRalpha (unknown origin) at 10 uM after 120 mins P33 radiolabeled kinase activity assay
Sequence of Platelet-derived growth factor receptor alpha (Homo sapiens) (P16234 whole entry): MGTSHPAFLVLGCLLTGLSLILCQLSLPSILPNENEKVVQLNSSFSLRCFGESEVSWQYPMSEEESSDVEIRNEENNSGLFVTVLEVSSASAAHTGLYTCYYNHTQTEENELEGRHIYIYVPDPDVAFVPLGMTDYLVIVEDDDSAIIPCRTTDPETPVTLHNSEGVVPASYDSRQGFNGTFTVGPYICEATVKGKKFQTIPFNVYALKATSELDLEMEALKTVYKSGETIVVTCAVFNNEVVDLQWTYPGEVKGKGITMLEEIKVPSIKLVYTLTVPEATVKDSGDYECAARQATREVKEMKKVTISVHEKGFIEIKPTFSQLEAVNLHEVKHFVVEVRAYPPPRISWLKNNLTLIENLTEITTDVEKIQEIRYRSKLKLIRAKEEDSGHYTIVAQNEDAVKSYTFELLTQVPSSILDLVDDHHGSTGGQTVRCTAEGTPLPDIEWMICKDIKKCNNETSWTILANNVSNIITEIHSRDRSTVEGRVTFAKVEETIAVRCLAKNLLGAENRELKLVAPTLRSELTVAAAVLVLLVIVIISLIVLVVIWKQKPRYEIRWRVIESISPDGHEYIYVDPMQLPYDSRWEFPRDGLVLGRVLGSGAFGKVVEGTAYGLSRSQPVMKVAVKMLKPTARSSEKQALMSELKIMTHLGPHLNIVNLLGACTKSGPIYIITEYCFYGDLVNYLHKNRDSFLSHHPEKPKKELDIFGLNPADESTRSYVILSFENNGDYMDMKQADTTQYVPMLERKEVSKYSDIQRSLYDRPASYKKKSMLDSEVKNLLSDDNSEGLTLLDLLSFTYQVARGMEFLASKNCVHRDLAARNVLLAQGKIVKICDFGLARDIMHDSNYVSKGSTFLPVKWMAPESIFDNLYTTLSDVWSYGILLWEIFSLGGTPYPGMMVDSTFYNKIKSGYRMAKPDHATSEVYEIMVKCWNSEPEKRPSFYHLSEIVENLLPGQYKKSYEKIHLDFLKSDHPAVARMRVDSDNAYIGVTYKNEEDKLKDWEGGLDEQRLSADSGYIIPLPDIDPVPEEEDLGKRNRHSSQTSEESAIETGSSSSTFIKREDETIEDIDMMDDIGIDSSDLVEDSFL

[8] = molecular target: T2, cAMP-dependent protein kinase catalytic subunit PRKX (Homo sapiens) (UniProt P51817); test: Inhibition of PRKX (unknown origin) at 10 uM after 120 mins P33 radiolabeled kinase activity assay
T2 sequence (whole entry): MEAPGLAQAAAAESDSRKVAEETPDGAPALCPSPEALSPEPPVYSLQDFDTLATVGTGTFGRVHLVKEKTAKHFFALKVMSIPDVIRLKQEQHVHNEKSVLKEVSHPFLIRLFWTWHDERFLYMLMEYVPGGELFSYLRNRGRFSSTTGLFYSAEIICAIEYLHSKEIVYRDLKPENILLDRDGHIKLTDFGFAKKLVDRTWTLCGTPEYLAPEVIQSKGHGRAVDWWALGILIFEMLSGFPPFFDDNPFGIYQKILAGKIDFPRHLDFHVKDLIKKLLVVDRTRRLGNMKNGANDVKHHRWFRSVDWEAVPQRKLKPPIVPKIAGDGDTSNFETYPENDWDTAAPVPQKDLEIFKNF

[9] = molecular target: T3, Serine/threonine-protein kinase DCLK1 (Homo sapiens) (UniProt O15075); test: Inhibition of DCAMKL1 (unknown origin) at 10 uM after 120 mins P33 radiolabeled kinase activity assay
T3 sequence (whole entry): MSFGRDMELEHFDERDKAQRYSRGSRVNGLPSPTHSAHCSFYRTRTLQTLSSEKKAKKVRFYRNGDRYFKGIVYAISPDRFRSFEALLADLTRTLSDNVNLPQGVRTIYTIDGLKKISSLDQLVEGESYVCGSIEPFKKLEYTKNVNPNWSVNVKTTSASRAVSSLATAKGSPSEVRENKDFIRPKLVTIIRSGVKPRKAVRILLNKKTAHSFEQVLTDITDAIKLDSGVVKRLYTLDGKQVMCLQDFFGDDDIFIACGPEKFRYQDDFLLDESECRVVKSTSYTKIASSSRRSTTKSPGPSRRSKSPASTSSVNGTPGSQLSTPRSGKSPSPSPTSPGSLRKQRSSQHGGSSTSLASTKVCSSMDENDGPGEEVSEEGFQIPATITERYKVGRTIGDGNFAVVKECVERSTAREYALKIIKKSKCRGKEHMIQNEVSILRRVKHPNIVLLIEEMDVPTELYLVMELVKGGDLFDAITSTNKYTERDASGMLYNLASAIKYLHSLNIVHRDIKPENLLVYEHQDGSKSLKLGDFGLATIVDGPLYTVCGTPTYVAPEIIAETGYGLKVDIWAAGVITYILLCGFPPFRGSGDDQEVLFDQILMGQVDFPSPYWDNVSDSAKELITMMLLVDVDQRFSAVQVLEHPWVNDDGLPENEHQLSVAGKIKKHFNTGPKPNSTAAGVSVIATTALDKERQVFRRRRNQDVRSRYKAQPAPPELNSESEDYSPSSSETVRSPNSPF

[10] = molecular target: MAP kinase-activated protein kinase 2 (Homo sapiens) (UniProt P49137); test: Inhibition of MAPKAPK2 (unknown origin) at 10 uM after 120 mins P33 radiolabeled kinase activity assay
[11] = molecular target: Tyrosine-protein kinase BTK (Homo sapiens) (UniProt Q06187); test: Inhibition of BTK (unknown origin) at 10 uM after 120 mins P33 radiolabeled kinase activity assay
Sequence of Tyrosine-protein kinase BTK (Homo sapiens) (Q06187 whole entry): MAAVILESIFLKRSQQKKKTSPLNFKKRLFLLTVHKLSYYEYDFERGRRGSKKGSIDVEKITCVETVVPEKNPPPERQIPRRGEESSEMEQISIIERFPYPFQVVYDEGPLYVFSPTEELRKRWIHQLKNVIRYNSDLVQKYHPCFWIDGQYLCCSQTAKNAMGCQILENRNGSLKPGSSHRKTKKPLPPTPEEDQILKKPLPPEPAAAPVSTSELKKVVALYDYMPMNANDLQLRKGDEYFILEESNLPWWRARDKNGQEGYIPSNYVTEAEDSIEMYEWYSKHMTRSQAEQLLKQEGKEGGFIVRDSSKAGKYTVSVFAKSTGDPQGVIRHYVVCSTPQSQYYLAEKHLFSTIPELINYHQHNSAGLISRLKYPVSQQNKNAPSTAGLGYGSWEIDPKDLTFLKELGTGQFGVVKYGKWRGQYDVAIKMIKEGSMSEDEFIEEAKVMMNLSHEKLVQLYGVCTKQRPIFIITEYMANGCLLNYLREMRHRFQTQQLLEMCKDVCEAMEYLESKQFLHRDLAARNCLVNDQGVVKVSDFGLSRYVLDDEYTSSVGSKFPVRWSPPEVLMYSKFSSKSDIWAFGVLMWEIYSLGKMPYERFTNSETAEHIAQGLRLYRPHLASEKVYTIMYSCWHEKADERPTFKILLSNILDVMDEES

[12] = molecular target: T4, NUAK family SNF1-like kinase 1 (Homo sapiens) (UniProt O60285); test: Inhibition of ARK5 (unknown origin) at 10 uM after 120 mins P33 radiolabeled kinase activity assay
T4 sequence (whole entry): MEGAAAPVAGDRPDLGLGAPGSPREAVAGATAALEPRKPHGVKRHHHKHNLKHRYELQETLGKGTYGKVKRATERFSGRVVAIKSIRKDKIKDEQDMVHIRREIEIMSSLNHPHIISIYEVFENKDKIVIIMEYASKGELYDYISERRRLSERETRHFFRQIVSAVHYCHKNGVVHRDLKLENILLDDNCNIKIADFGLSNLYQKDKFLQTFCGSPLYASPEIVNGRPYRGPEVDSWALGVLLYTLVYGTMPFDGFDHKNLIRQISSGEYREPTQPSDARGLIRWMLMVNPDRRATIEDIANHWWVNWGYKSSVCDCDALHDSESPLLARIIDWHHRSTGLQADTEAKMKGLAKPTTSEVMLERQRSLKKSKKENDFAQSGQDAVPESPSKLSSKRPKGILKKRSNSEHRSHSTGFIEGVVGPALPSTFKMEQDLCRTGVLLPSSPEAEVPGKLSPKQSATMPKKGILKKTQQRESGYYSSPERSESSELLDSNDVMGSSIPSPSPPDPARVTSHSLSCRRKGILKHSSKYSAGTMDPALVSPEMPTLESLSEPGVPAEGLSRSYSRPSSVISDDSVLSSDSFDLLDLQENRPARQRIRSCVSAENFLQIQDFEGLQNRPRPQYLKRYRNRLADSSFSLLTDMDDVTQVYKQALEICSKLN

Sequence of Calcium/calmodulin-dependent protein kinase type II subunit gamma (Homo sapiens) (Q13555 whole entry): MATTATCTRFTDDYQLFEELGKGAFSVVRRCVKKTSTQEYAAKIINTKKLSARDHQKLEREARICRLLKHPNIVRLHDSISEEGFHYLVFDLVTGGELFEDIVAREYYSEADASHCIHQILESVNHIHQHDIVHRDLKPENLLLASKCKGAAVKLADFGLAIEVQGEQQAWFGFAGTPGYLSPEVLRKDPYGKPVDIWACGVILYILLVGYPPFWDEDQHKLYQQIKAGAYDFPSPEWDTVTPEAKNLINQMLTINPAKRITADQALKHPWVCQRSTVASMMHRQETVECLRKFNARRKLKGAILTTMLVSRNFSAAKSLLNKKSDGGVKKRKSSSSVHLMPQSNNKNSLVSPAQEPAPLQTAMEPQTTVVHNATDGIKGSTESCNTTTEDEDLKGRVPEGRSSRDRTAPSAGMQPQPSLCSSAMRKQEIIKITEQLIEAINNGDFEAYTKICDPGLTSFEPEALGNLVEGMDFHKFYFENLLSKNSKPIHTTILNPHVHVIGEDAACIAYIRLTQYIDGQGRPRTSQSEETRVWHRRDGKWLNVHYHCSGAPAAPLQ

Row | inhibition [1] [%] | inhibition [2] [%] | inhibition [3] [%] | inhibition [4] [%] | inhibition [5] [%] | inhibition [6] [%] | inhibition [7] [%] | inhibition [8] [%] | inhibition [9] [%] | inhibition [10] [%] | inhibition [11] [%] | inhibition [12] [%] | Compound
1 | 9.22 | 15 | 4.14 | -6.38 | 1.49 | 9.38 | 17.2 | 12.7 | 4.11 | 11.5 | 19.4 | 7.6 | COCCNC(=O)c1ccc2c(c1)nc(-c1cnc(-c3ccc(Cl)cc3)[nH]1)n2CCOC
2 | 7.84 | 10.5 | 64.4 | 27.3 | 10.1 | 31.6 | 94.1 | 18.2 | 8.06 | 10.7 | 96 | 41.1 | CS(=O)(=O)c1cccc(Nc2nccc(-c3sc(N4CCOCC4)nc3-c3cccc(NS(=O)(=O)c4c(F)cccc4F)c3)n2)c1
3 | 3.21 | 11.2 | 79.4 | 92.2 | 33 | 8.89 | 98.3 | 54.2 | 2.97 | 11 | 20.3 | -0.15 | CC(C)(C)c1cc(NC(=O)Nc2ccc(Oc3ccncc3)cc2)no1
